Laboratory results from US20260198499A1, “PLANT STOMATAL OPENING REGULATOR” (priority 2022, published 2026).
Where two headings read alike, the source gives them in different places.

Columns and labels:
[1] = test system: ABA-responsive kinase substrate (AKS); test: Immunoblot analysis of phosphorylation of ABA-responsive kinase substrate (AKS) in guard cells; format: cell-based; conditions: compound 1 100 μM; Vicia faba guard cells; FIG. 3
Procedure: Abscisic acid (ABA)-induced phosphorylation of ABA-responsive kinase substrate (AKS) in guard cells from the epidermis of broad bean (Vicia faba) was measured by immunoblot analysis as previously reported (Takahashi et al. (2007) Protein Phosphorylation and Binding of a 14-3-3 Protein in Vicia Guard Cells in Response to ABA. Plant and Cell Physiology. 48:1182-1191). The test compounds used were compound 1 (BITC) and abscisic acid. The concentration of compound 1 during action was 100 μM, and the concentration of abscisic acid during action was 20 μM.

[2] = test system: chrysanthemums (Chrysanthemum); test: Drought tolerance test 1 (dehydrated chrysanthemum bouquet); format: in vivo; conditions: 21° C., 90 minutes, relative humidity 35 to 40%, FIG. 6
Procedure: (§1) A bouquet of chrysanthemums (Chrysanthemum) was purchased and cultured in a water bottle at 24° C. with a photoperiod of 16 h white light (100 μmol m^−2s^−1)/8 h darkness for 2 days. After the dark period ended, the leaves were immersed in a test solution (0.033% Makupika (spreader, Isk Biosciences K. K.)) containing the test compound (compound 1 (BITC), compound 4 (m-Bis-BITC), or abscisic acid (ABA)) and incubated under white light (100 μmol m^−2s^−1) for 3 hours or incubated with a photoperiod of 16 h light/16 h darkness (light→dark→light) for 48 hours. After incubation, the stomatal aperture was measured in the same manner as in Test Example 1.
After incubation for 3 hours in Test Example 5, the bouquet was dehydrated and incubated at 21° C. for 90 minutes under 10 μmol m^−2s^−1 white light at a relative humidity of 35 to 40%.

[3] = test system: plasma membrane proton pump (H+-ATPase) phosphorylation in guard cells; test: Immunohistochemical measurement of blue light- and fusicoccin-induced phosphorylation of the plasma membrane proton pump in guard cells; format: cell-based, Arabidopsis thaliana; conditions: compound 1 100 μM, compound 4 20 µM, compound 5 20 μM, FIG. 2; for inhibitory effect on blue light-induced phosphorylation of the plasma membrane proton pump: Arabidopsis guard cells; for inhibitory effect on fusicoccin-induced phosphorylation of the plasma membrane proton pump: fusicoccin 10 μM
Procedure: Blue light- and fusicoccin-induced phosphorylation of the plasma membrane proton pump in guard cells from the epidermis of Arabidopsis thaliana was measured immunohistochemically as previously reported (Hayashi et al. (2011) Immunohistochemical detection of blue light-induced phosphorylation of the plasma membrane H^+-ATPase in stomatal guard cells. Plant Cell Physiol. 52:1238-1248). The test compounds used were compound 1 (BITC), compound 4 (m-Bis-BITC), and compound 5 (Tris-BITC). The concentration of compound 1 during action was 100 μM, the concentration of compound 4 during action was 20 µM, the concentration of compound 5 during action was 20 μM, and the concentration of fusicoccin during action was 10 μM.

[4] = test system: ABA-related responses in Arabidopsis thaliana; test: ABA-related responses (seed germination, ABA-responsive genes RAB18 and RD29B); format: in vivo
[5] = test system: stomatal opening of leaf disks; test: Stomatal opening regulatory action measurement test 2 (light- and fusicoccin-induced stomatal opening); format: cell-based, Commelina benghalensis; conditions: compound 1 100 μM, FIG. 1
Procedure: (§2) Part of the stem of Commelina benghalensis was inserted into a planter filled with mixed soil of vermiculite and peat moss, and grown indoors with natural light (room temperature: 25±3° C.) for 2 to 4 weeks. The planter was placed in a dark room and subjected to dark treatment overnight. After the dark treatment, leaf disks with a diameter of 4 mm were cut from fully expanded leaves using a hole punch (Biospy Punch, Kai Medical).
[…] After incubation, stomatal closure was evaluated under observation images (600×) using a stereofluorescence microscope (Leica M205FA). The minor diameter of about 20 stomata (hereinafter referred to as “stomatal aperture”) was measured for each leaf disk. Based on the measured values of stomatal aperture at each concentration for each test compound, the 50% inhibitory concentration (IC50) of stomatal aperture was calculated.
Compound 1 (BITC: benzyl isothiocyanate) (final concentration in the test solution: 100 μM) and abscisic acid (final concentration in the test solution: 20 µM) were used as test compounds. A test solution was also prepared by adding fusicoccin (final concentration: 10 μM) in addition to the test compound. […] The mean and standard deviation (SD) were calculated based on the measured values.

[6] = test system: stomatal opening in intact leaves of chrysanthemums; test: Stomatal opening regulatory action measurement test 3 (intact chrysanthemum leaves); format: in vivo; conditions: for inhibitory effect on stomatal opening in intact leaves: chrysanthemum leaves immersed in test solution, white light 3 hours, FIGS. 4 and 5
Procedure: as §1

[7] = test system: stomatal aperture of Commelina benghalensis leaf disks; test: Stomatal opening regulatory action measurement test 1 (IC50 of stomatal aperture, leaf disks); format: cell-based; conditions: read-out: IC50 (50% inhibitory concentration of stomatal aperture)
Procedure: as §2
Each test solution was dispensed into five wells of a 96-well plate at 50 μl/well, and the leaf disks were immersed therein, followed by incubation under light irradiation (50 μmol m^−2s^−1 blue light) for 3 hours. After incubation, stomatal closure was evaluated under observation images (600×) using a stereofluorescence microscope (Leica M205FA). The minor diameter of about 20 stomata (hereinafter referred to as “stomatal aperture”) was measured for each leaf disk.

[8] = test system: Chinese cabbage (Brassica rapa); test: Drought tolerance test 2 (sprayed Chinese cabbage, water depleted); format: in vivo; conditions: Chinese cabbage sprayed with 50 μM, 24 hours, 25° C., relative humidity 40 to 50%, FIG. 7
Procedure: A test solution (0.033% Makupika (spreader, Isk Biosciences K.K.)) containing compound 4 (m-Bis-BITC) was sprayed onto 4- to 5-week-old Chinese cabbage (Brassica rapa) growing in 110 ml of soil. The concentration of compound 4 in the test solution was 50 μM. Then, the water was depleted, and the plants were cultured for 24 hours in a greenhouse at 25° C. at a relative humidity of 40 to 50% on a sunny day.

[9] = Commelina benghalensis leaf disks, 3 hours under 50 μmol m−2s−1 blue light

| SMILES | induction of phosphorylation of the ABA-responsive kinase substrate [1] | drought tolerance and wilting [2] | inhibitory effect on blue light-induced phosphorylation of the plasma membrane proton pump [3] | inhibitory effect on fusicoccin-induced phosphorylation of the plasma membrane proton pump [3] | effect on ABA-related responses, including inhibition of seed germination and induction of ABA-responsive genes (RAB18 and RD29B) [4] | inhibitory effect on stomatal opening compared with abscisic acid ([5]; abscisic acid 20 µM, 3 hours red and blue light) | inhibitory effect on stomatal opening induced by fusicoccin ([5]; fusicoccin 10 μM, 3 hours) | inhibitory effect on stomatal opening in intact leaves [6] | IC50 [7, 9] [µM] | IC50 ([7]; Commelina benghalensis, 3 h) [µM] | persistence of the stomatal opening inhibitory effect ([6]; chrysanthemum leaves, 48 hours incubation, m-Bis-BITC 50 µM, FIG. 5) | drought tolerance and wilting [8] |
| --- | --- | --- | --- | --- | --- | --- | --- | --- | --- | --- | --- | --- |
| S=C=NCc1ccccc1 [Compound 1, benzyl isothiocyanate] | did not induce phosphorylation | could improve drought tolerance and suppress wilting | inhibitory effects | inhibitory effects | no effect | more potent inhibitory effect on stomatal opening than abscisic acid | exhibited an inhibitory effect on stomatal opening induced by fusicoccin | inhibitory effect on stomatal opening even in intact leaves | 29.1 |  |  |  |
| S=C=NCc1cccs1 [Compound 2] |  |  |  |  |  |  |  |  |  | 20.6 |  |  |
| S=C=NCc1cccc(CN=C=S)c1 [Compound 4] |  | could improve drought tolerance and suppress wilting | inhibitory effects | inhibitory effects |  |  |  | inhibitory effect on stomatal opening even in intact leaves | 1.7 |  | excellent in the persistence | could improve drought tolerance and suppress wilting over a long period of time |
| S=C=NCc1cc(CN=C=S)cc(CN=C=S)c1 [Compound 5, 1,3,5-tris(isothiocyanatomethyl)benzene] |  |  | inhibitory effects | inhibitory effects |  |  |  |  |  | 0.44 |  |  |
| S=C=NC[C@H]1CC[C@H](CN=C=S)CC1 [Compound 27, trans-1,4-bis(isothiocyanatomethyl)cyclohexane] |  |  |  |  |  |  |  |  |  | 11.4 |  |  |
